The values below come from ChEMBL document CHEMBL1156699, “C-terminal constrained phenylalanine as a pharmacophoric unit in peptide-based proteasome inhibitors” (Eur J Med Chem, 2008).

Series [1] in a line: Inhibition of trypsin like 20S proteasome activity in lymphoblastoid cells. The format is cell-based.
The nature of series [2]: Inhibition of chymotrypsin like 20S proteasome activity in lymphoblastoid cells. Format: cell-based.
A short description of series [3]: Inhibition of caspase like 20S proteasome activity in lymphoblastoid cells. The format is cell-based.
A short description of series [4]: In vivo inhibition of trypsin like 20S proteasome. Format: organism-based.
Series [5] is described as follows: In vivo inhibition of chymotrypsin like 20S proteasome. The format is organism-based.
Series [6] can be described thus: In vivo inhibition of caspase like 20S proteasome. The format is organism-based.
Series [7] can be described thus: Half life in human plasma after 360 mins. Format: ADME, cell-free.

Usually IC50 stands for the concentration that inhibits the measured activity by half. By half-life is commonly meant how long it takes for the measured level to halve. Read a high half-life as slow decline.

Residues, ends and D or L forms follow the SMILES beside them. *: point of attachment. Cbz = O=C(OCc1ccccc1)* A value given as a limit tells only on which side of the number the result lay.

Take `CCOC(=O)/C=C/[C@H](CC(C)C)NC(=O)[C@H](CO)NC(=O)[C@@H](NC(=O)c1cccc(O)c1C)C(C)C`: the IC50 in series [1] was 33 nM; in series [2], more than 10000 nM; in series [3], more than 10000 nM; in series [4], 50 nM; in series [5], more than 10000 nM; in series [6], more than 10000 nM. The half-life in series [7] is more than 6 h.
`CCOC(=O)/C(=C/c1ccccc1)NC(=O)[C@H](CC(C)C)NC(=O)[C@H](CO)NC(=O)[C@@H](NC(=O)c1cccc(O)c1C)C(C)C`: the IC50 in series [1] is 79 nM; in series [2], more than 10000 nM; in series [3] it was more than 10000 nM; in series [4], 92 nM; in series [5], more than 10000 nM; in series [6], more than 10000 nM. In addition, the half-life in series [7] is more than 6 h.
Consider `CCOC(=O)/C(=C/c1ccccc1)NC(=O)[C@H](CC(C)C)NC(=O)[C@H](CC(C)C)NC(=O)[C@H](CC(C)C)NC(=O)c1cccc(O)c1C`, for which the IC50 was 1320 nM in series [1]; 894 nM in series [2]; more than 10000 nM in series [3]; 1820 nM in series [4]; 1040 nM in series [5]; more than 10000 nM in series [6]. Also, the half-life in series [7] was more than 6 h.
As for `CCOC(=O)/C=C/[C@H]1Cc2ccccc2CN1C(=O)[C@H](CC(C)C)NC(=O)[C@H](CC(C)C)NC(=O)c1cccc(O)c1C`, the IC50 in series [1] is more than 10000 nM; in series [2], 3730 nM; in series [3], 1480 nM; in series [6], 2050 nM. For the same compound, the half-life in series [7] is more than 6 h.
In the case of `CCOC(=O)/C=C/[C@H]1Cc2ccccc2CN1C(=O)[C@H](CC(C)C)NC(=O)[C@H](CO)NC(=O)[C@@H](NC(=O)c1cccc(O)c1C)C(C)C`, the IC50 was 7950 nM in series [1], more than 10000 nM in series [2] and 2350 nM in series [3].
Turning to `CCOC(=O)/C=C/[C@H]1Cc2ccccc2CN1C(=O)[C@H](CC(C)C)NC(=O)[C@H](CC(C)C)NC(=O)[C@H](CC(C)C)NC(=O)c1cccc(O)c1C`, the IC50 in series [1] is more than 10000 nM; in series [2], 8450 nM; in series [3], 952 nM; in series [6], 1410 nM. The compound also displayed a half-life in series [7] of more than 6 h.
With `CCOC(=O)/C=C/[C@@H]1Cc2ccccc2CN1C(=O)[C@H](CC(C)C)NC(=O)[C@H](CC(C)C)NC(=O)c1cccc(O)c1C`, the IC50 in series [1] worked out at 5840 nM; in series [2], 2060 nM; in series [3], 2140 nM.
For `CCOC(=O)/C=C/[C@@H]1Cc2ccccc2CN1C(=O)[C@H](CO)NC(=O)[C@@H](NC(=O)c1cccc(O)c1C)C(C)C`, in that order: 2790 nM, more than 10000 nM and 3920 nM.
For `CCOC(=O)/C=C/[C@H]1Cc2ccccc2CN1C(=O)[C@H](CO)NC(=O)[C@@H](NC(=O)c1cccc(O)c1C)C(C)C`, in that order: 3670 nM, more than 10000 nM and 2960 nM.
In the case of `CCOC(=O)/C(=C/c1ccccc1)NC(=O)[C@H](CC(C)C)NC(=O)[C@H](CC(C)C)NC(=O)c1cccc(O)c1C`, the IC50 was 1760 nM in series [1]; 1190 nM in series [2]; more than 10000 nM in series [3]; 2180 nM in series [4]; 1550 nM in series [5]; more than 10000 nM in series [6]. In addition, the half-life in series [7] is more than 6 h.
Turning to `CCOC(=O)/C(=C/c1ccccc1)NC(=O)[C@H](CO)NC(=O)[C@@H](NC(=O)c1cccc(O)c1C)C(C)C`, the IC50 in series [1] is 183 nM; in series [2], more than 10000 nM; in series [3], more than 10000 nM; in series [4], 231 nM; in series [5], more than 10000 nM; in series [6], more than 10000 nM. In series [7], this compound displayed a half-life of more than 6 h.
With `CCOC(=O)/C=C/[C@@H]1Cc2ccccc2CN1C(=O)[C@H](CC(C)C)NC(=O)[C@H](CC(C)C)NC(=O)[C@H](CC(C)C)NC(=O)c1cccc(O)c1C`, the IC50 is more than 10000 nM in series [1], 5300 nM in series [2] and 1730 nM in series [3].
For `CCOC(=O)/C=C/[C@@H]1Cc2ccccc2CN1C(=O)[C@H](CC(C)C)NC(=O)[C@H](CO)NC(=O)[C@@H](NC(=O)c1cccc(O)c1C)C(C)C`, in that order: more than 10000 nM, more than 10000 nM and 2500 nM.
In turn, `CC[C@H](C)[C@H](NC(=O)[C@H]([C@@H](C)CC)N(C)C(C)=O)C(=O)N[C@H](C(=O)N[C@@H](CC(C)C)C(=O)[C@@]1(C)CO1)[C@@H](C)O` [EPOXOMYCIN] showed an IC50 in series [2] of 5 nM.
Take `CC(C)C[C@@H](C=O)NC(=O)[C@H](CC(C)C)NC(=O)[C@H](CC(C)C)NC(=O)OCc1ccccc1` [MG-132] (Cbz-Leu-Leu-Leu-aldehyde): the IC50 in series [1] was 1080 nM; in series [2], 2 nM; in series [3], more than 10000 nM.
